According to the supplement of paper PMC7600603:

How the values were obtained:
[1] = test system: DLD1 NRF2-WT; details: 72 h; CellTiter-Glo viability
How it was run: (§1)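 Cells grown in DMEM with 10% FBS were isogenic DLD1 colorectal cancer lines, NRF2 wild-type or CRISPR gain-of-function. In 384-well plates they received library compounds at 5 concentrations over a 10,000-fold range for 72 h before CellTiter-Glo readout on a Pherastar FS reader, normalised to vehicle wells and 100-μM positive-control wells. Dose-response fits used a four-parameter logistic model, from which EC50 and drug sensitivity score, a normalised area under the curve, were obtained.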

[2] = test system: DLD1 NRF2-GOF; details: 72 h; CellTiter-Glo viability
How it was run: as §1

[3] = test system: DLD1 NRF2-WT; experiment: drug sensitivity score (DSS) viability (DSS score); higher = more sensitive; extreme values may be limits of the assay; details: 72 h; CellTiter-Glo viability
How it was run: as §1

[4] = test system: DLD1 NRF2-GOF; experiment: as above; details: 72 h; CellTiter-Glo viability
How it was run: as §1

[5] = test system: DLD1 NRF2-WT; experiment: TC50 cytotoxicity; higher = less toxic; details: 72 h; CellTox Green cytotoxicity
How it was run: (§2)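 In 384-well plates, isogenic DLD1 cells with NRF2 wild-type or CRISPR-edited status, grown in DMEM with 10% FBS, received library compounds at 5 concentrations spanning a 10,000-fold range. At 72 h, CellTox Green signals were read on a Pherastar FS reader and scaled between vehicle wells and 100-μM positive-control wells. Cytotoxicity endpoints, TC50 and a drug sensitivity score based on normalised area under the curve, came from logistic dose-response fits.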

[6] = test system: DLD1 NRF2-GOF; experiment: TC50 cytotoxicity; higher = less toxic; details: 72 h; CellTox Green cytotoxicity
How it was run: as §2

[7] = test system: DLD1 NRF2-WT; experiment: drug sensitivity score (DSS) cytotoxicity (DSS score); higher = more toxic; extreme values may be limits of the assay; details: 72 h; CellTox Green cytotoxicity
How it was run: as §2

[8] = test system: DLD1 NRF2-GOF; experiment: as above; details: 72 h; CellTox Green cytotoxicity
How it was run: as §2

SMILES | EC50 viability [1] [µM] | EC50 viability [2] [µM] | drug sensitivity score [3] | drug sensitivity score [4] | TC50 cytotoxicity [5] [µM] | TC50 cytotoxicity [6] [µM] | drug sensitivity score [7] | drug sensitivity score [8]
CCS(=O)(=O)c1cccc(-c2cc(C(=O)NC3CCN(C)CC3)c(C)c3[nH]c4ncc(C)cc4c23)c1 [TAK-901] | 0.108 | 0.0533 | 7.8 | 11.2 | > 1 | 0.0837 | 2.2 | 5.6
NCCNc1ccc(NCCN)c2c1C(=O)c1ccncc1C2=O [Pixantrone] | 1.68 | 1.11 | 4 | 4.9 | > 10 | > 10 | 0 | 0
O=C(Nc1nc2cccc(-c3ccc(CN4CCS(=O)(=O)CC4)cc3)n2n1)C1CC1 [Filgotinib] | 2.09 | 0.79 | 6.7 | 11.7 | > 10 | > 10 | 0 | 0.8
NC(=O)NO [Hydroxyurea] | 364 | 157 | 1.7 | 5.8 | > 1000 | > 1000 | 0 | 0
COc1cccc2c1C(=O)c1c(O)c3c(c(O)c1C2=O)C[C@@](O)(C(=O)CO)C[C@@H]3O[C@H]1C[C@H](N)[C@H](O)[C@H](C)O1 [Doxorubicin] | 0.168 | 0.139 | 8.1 | 9.2 | > 1 | > 1 | 0 | 0
O=c1ncn2nc(Sc3ccc(F)cc3F)ccc2c1-c1c(Cl)cccc1Cl [VX-745] | > 10 | > 10 | 1.4 | 0.2 | > 10 | > 10 | 0 | 0
Nc1nc(N)c2nc(-c3cccc(O)c3)c(-c3cccc(O)c3)nc2n1 [TG100-115] | 0.0751 | 1.43 | 7.1 | 3.5 | > 10 | > 10 | 0 | 0
CC(C)Oc1ccc(-c2nn([C@@H](C)c3oc4ccc(F)cc4c(=O)c3-c3cccc(F)c3)c3ncnc(N)c23)cc1F [TGR-1202] | > 2.5 | > 2.5 | 0 | 0 | > 2.5 | > 2.5 | 0 | 0
Cc1cnc(NC(=O)Nc2cc(Br)c(C)cc2OC[C@@H]2CNCCO2)cn1 [Rabusertib] | > 1 | > 1 | 0.3 | 1 | > 1 | > 1 | 0 | 0
C=CC(=O)Nc1cccc(Nc2nc(Nc3ccc(N4CCN(C(C)=O)CC4)cc3OC)ncc2C(F)(F)F)c1 [Rociletinib] | 2.44 | 3.69 | 5.3 | 3.1 | 3.15 | > 10 | 1.5 | 0.7
C=CC(=O)Nc1cc2c(Nc3ccc(F)c(Cl)c3)ncnc2cc1OCCCN1CCOCC1 [Canertinib] | 1.97 | 2.52 | 8.1 | 6.8 | 2.39 | 3.21 | 7.1 | 5.5
CCN(CC)CCNC(=O)c1c(C)[nH]c(/C=C2\C(=O)Nc3ccc(F)cc32)c1C [Sunitinib] | 0.381 | 0.229 | 1.9 | 2.8 | > 1 | > 1 | 0 | 0
Cc1ccc(-n2nc(C(C)(C)C)cc2NC(=O)Nc2ccc(OCCN3CCOCC3)c3ccccc23)cc1 [Doramapimod] | > 10 | > 10 | 0 | 0 | > 10 | > 10 | 0 | 0
NS(=O)(=O)NCCNc1nonc1/C(=N/O)Nc1ccc(F)c(Br)c1 [Epacadostat] | 1.67 | 1.75 | 3.8 | 3.2 | > 10 | > 10 | 0 | 0
Cc1cc2c(C(C)C)c(O)c(O)c(C=O)c2c(O)c1-c1c(C)cc2c(C(C)C)c(O)c(O)c(C=O)c2c1O [AT 101] | 4.41 | 6.1 | 15.9 | 14.4 | 30.3 | > 100 | 1.7 | 1
CN1CCc2c(c3ccccc3n2Cc2ccc(C(=O)NO)cc2)C1 [Tubastatin A] | 0.295 | 1.56 | 4 | 4.1 | > 10 | > 10 | 0 | 0
O=C(NC1CCNCC1)c1n[nH]cc1NC(=O)c1c(Cl)cccc1Cl [AT7519] | 0.169 | 0.256 | 20 | 17.1 | > 10 | > 10 | 0 | 0
CN(C)Cc1c(C(=O)NCCOc2ccc(C(=O)NO)cc2)oc2ccccc12 [Abexinostat] | 0.582 | 0.832 | 14 | 10.4 | 1.25 | > 10 | 7.5 | 0.7
CNC(=O)c1cccc(-c2ccc3c(N4CCOC[C@@H]4C)nc(N4CCOC[C@@H]4C)nc3n2)c1 [Vistusertib] | 0.371 | 0.675 | 11.9 | 9.9 | > 10 | > 10 | 0 | 0
COc1cc2c(Nc3ccc(Cl)c(Cl)c3F)ncnc2cc1OC[C@@H]1C[C@@H]2CN(C)C[C@@H]2C1 [Tesevatinib] | 0.167 | 0.425 | 5.1 | 1.2 | > 1 | > 1 | 0.1 | 0
CCNC(=O)c1noc(-c2cc(C(C)C)c(O)cc2O)c1-c1ccc(CN2CCOCC2)cc1 [Luminespib] | 0.0121 | 0.0128 | 22 | 21.4 | > 1 | > 1 | 0 | 0
Cc1ccc(NC(=O)c2ccc(CN3CCN(C)CC3)cc2)cc1Nc1nc(-c2cccnc2)cs1 [Masitinib] | 1.8 | 0.163 | 6.7 | 14.3 | > 10 | > 10 | 0 | 0

SMILES | EC50 viability [1] [µM] | EC50 viability [2] [µM] | drug sensitivity score [3] | drug sensitivity score [4] | TC50 cytotoxicity [5] [µM] | TC50 cytotoxicity [6] [µM] | drug sensitivity score [7] | drug sensitivity score [8]
C=CC(=O)N1CCC(Oc2cc3c(Nc4ccc(Cl)c(Cl)c4F)ncnc3cc2OC)CC1 [Poziotinib] | 0.203 | 0.258 | 3.6 | 2.7 | > 1 | > 1 | 0 | 0
CN(C)C1CCN(C(=O)c2ccc(NC(=O)Nc3ccc(-c4nc(N5CCOCC5)nc(N5CCOCC5)n4)cc3)cc2)CC1 [Gedatolisib] | 0.0196 | 0.0266 | 13.5 | 12.6 | > 1 | > 1 | 0 | 0
C=CC(=O)Nc1cccc(Nc2nc(Nc3ccc(OCCOC)cc3)ncc2F)c1 [Spebrutinib] | 0.0822 | 0.0396 | 3.2 | 6.5 | > 1 | > 1 | 0 | 0
CN(C)C[C@@H]1CCn2cc(c3ccccc32)C2=C(C(=O)NC2=O)c2cn(c3ccccc23)CCO1 [Ruboxistaurin] | 2.08 | 2 | 5.1 | 5 | > 10 | > 10 | 0 | 0.2
CC(=O)c1cc2c(o1)C(=O)c1ccccc1C2=O [Napabucasin] | 0.361 | 0.21 | 21 | 23.9 | 0.617 | 0.465 | 16.1 | 19.6
COc1ccc(-c2ccc3ncc4c(c3c2)n(-c2ccc(N3CCNCC3)c(C(F)(F)F)c2)c(=O)n4C)cn1 [NVP-BGT226] | 0.0264 | 0.035 | 17.5 | 16.2 | 0.338 | 0.359 | 4.4 | 4.1
CN[C@@H](C)C(=O)N[C@H](C(=O)N1CCC[C@H]1c1nc(C(=O)c2ccc(F)cc2)cs1)C1CCCCC1 [NVP-LCL161] | > 25 | 2.36 | 2.1 | 4.8 | > 25 | > 25 | 0 | 0
COc1cc2c(cc1OCCCN1CCCC1)N=C(N)C21CCC1 [A-366] | > 25 | > 25 | 0 | 0 | > 25 | > 25 | 0 | 0
Nc1cc(C(F)(F)F)c(-c2cc(N3CCOCC3)nc(N3CCOCC3)n2)cn1 [Buparlisib] | 1.78 | 3.13 | 7 | 4.2 | > 10 | > 10 | 0.4 | 0
Nc1ccn([C@@H]2O[C@H](CO)[C@@H](O)C2(F)F)c(=O)n1 [Gemcitabine] | 0.0267 | 0.0284 | 11.4 | 10.7 | > 1 | > 1 | 0 | 0
CC[C@@](C)(Nc1ccnc(-c2c[nH]c3ncccc23)n1)C(=O)NCC(F)(F)F [Decernotinib] | > 10 | > 10 | 0 | 0 | > 10 | > 10 | 0 | 0
C[C@@H]1CN(C(=O)c2ccc(NC(=O)c3cc(O[C@H](C)c4c(Cl)ccc(F)c4Cl)c(N)nn3)cc2)C[C@H](C)N1 [Ensartinib] | > 1 | > 1 | 0 | 0.1 | > 1 | > 1 | 0.3 | 0.2
O=C(Nc1ccc(OC(F)(F)Cl)cc1)c1cnc(N2CC[C@@H](O)C2)c(-c2cc[nH]n2)c1 [NVP-ABL001] | > 1 | > 1 | 0.1 | 2.3 | > 1 | > 1 | 0 | 0
CC#CC(=O)N1CCC[C@H]1c1nc(-c2ccc(C(=O)Nc3ccccn3)cc2)c2c(N)nccn12 [Acalabrutinib] | 0.284 | 0.11 | 1.7 | 4 | > 1 | > 1 | 0 | 0
O=C(NC[C@H](O)CN1CCc2ccccc2C1)c1cc(NC2COC2)ncn1 | > 10 | > 10 | 3 | 2.4 | > 10 | > 10 | 0 | 0
O=c1[nH]c(=O)n([C@H]2C[C@H](O)[C@@H](CO)O2)cc1C(F)(F)F [Trifluridine] | > 10 | 2.51 | 0 | 2.2 | > 10 | > 10 | 0 | 0
CN(C)C(=O)c1cc2cnc(Nc3ccc(N4CCNCC4)cn3)nc2n1C1CCCC1 [Ribociclib] | 0.46 | 0.169 | 8.2 | 6.8 | > 10 | > 10 | 0 | 0
O=C(O)CC[C@H]1CC[C@@](c2cc(F)ccc2F)(S(=O)(=O)c2ccc(Cl)cc2)CC1 [MK-0752] | > 1 | 0.0017 | 0.7 | 9.1 | > 1 | > 1 | 0 | 0
COc1cc(C)[nH]c(=O)c1CNC(=O)c1c(C)n([C@H](C)C2CCOCC2)c2ccccc12 [CPI-360] | > 10 | 0.198 | 0 | 7.4 | > 10 | > 10 | 0 | 0
CN(Cc1cnc2nc(N)nc(N)c2n1)c1ccc(C(=O)N[C@@H](CCC(=O)O)C(=O)O)cc1 [Methotrexate] | 0.0355 | 0.0297 | 23.4 | 23.8 | > 5 | > 5 | 0 | 0
O=C1CCc2c(Oc3ccc4c(c3)[C@@H]3[C@H](O4)[C@H]3c3nc4cc(C(F)(F)F)ccc4[nH]3)ccnc2N1 [BGB-283] | 1.62 | 4.13 | 5 | 1.5 | > 10 | > 10 | 0 | 0
